In the kinase profiling compilation of Christmann-Franck et al. (2016):

Columns and labels:
Assay in all cases: KINOMEscan competition binding
Settings in all cases: compound 10.0 µM
[1] = biological target: ACVR1B (human) (UniProt P36896)
[2] = biological target: MYO3A (human) (UniProt Q8NEV4)
[3] = biological target: PRKAA2 (human) (UniProt P54646)
[4] = biological target: FGFR2 (human) (UniProt P21802)
[5] = biological target: AKT1 (human) (UniProt P31749)
[6] = biological target: MAP3K4 (human) (UniProt Q9Y6R4)
[7] = biological target: IGF1R (human) (UniProt P08069)
[8] = biological target: PRKG2 (human) (UniProt Q13237)
[9] = biological target: CSF1R (human) (UniProt P07333)
[10] = biological target: EPHB2 (human) (UniProt P29323)
[11] = system: PIK3CA (human), P42336 [E545K]
[12] = biological target: MARK2 (human) (UniProt Q7KZI7)
[13] = biological target: ULK1 (human) (UniProt O75385)
[14] = biological target: LYN (human) (UniProt P07948)
[15] = biological target: CDC42BPB (human) (UniProt Q9Y5S2)
[16] = biological target: AXL (human) (UniProt P30530)
[17] = biological target: NTRK1 (human) (UniProt P04629)
[18] = biological target: FLT4 (human) (UniProt P35916)
[19] = biological target: SIK1 (human) (UniProt P57059)
[20] = biological target: EPHB3 (human) (UniProt P54753)
[21] = biological target: ANKK1 (human) (UniProt Q8NFD2)
[22] = system: FGFR3 (human), P22607 [G697C]
[23] = biological target: LIMK1 (human) (UniProt P53667)
[24] = biological target: PTK6 (human) (UniProt Q13882)
[25] = biological target: NTRK3 (human) (UniProt Q16288)
[26] = biological target: MAPK12 (human) (UniProt P53778)
[27] = biological target: EPHB1 (human) (UniProt P54762)
[28] = biological target: KDR (human) (UniProt P35968)
[29] = biological target: MAP3K10 (human) (UniProt Q02779)
[30] = biological target: EPHA3 (human) (UniProt P29320)
[31] = biological target: PHKG1 (human) (UniProt Q16816)
[32] = biological target: EPHA8 (human) (UniProt P29322)
[33] = system: ABL1 (human), P00519 [Y253F]
[34] = biological target: CDC42BPA (human) (UniProt Q5VT25)
[35] = biological target: RPS6KA2 KD1 (human) (UniProt Q15349)
[36] = biological target: PRKACB (human) (UniProt P22694)
[37] = biological target: IKBKB (human) (UniProt O14920)
[38] = biological target: MAPK1 (human) (UniProt P28482)
[39] = biological target: MAP4K1 (human) (UniProt Q92918)
[40] = biological target: CAMK2D (human) (UniProt Q13557)
[41] = biological target: NEK6 (human) (UniProt Q9HC98)
[42] = biological target: FGFR1 (human) (UniProt P11362)
Chain of FGFR1 (human) (P11362 whole entry, looked up): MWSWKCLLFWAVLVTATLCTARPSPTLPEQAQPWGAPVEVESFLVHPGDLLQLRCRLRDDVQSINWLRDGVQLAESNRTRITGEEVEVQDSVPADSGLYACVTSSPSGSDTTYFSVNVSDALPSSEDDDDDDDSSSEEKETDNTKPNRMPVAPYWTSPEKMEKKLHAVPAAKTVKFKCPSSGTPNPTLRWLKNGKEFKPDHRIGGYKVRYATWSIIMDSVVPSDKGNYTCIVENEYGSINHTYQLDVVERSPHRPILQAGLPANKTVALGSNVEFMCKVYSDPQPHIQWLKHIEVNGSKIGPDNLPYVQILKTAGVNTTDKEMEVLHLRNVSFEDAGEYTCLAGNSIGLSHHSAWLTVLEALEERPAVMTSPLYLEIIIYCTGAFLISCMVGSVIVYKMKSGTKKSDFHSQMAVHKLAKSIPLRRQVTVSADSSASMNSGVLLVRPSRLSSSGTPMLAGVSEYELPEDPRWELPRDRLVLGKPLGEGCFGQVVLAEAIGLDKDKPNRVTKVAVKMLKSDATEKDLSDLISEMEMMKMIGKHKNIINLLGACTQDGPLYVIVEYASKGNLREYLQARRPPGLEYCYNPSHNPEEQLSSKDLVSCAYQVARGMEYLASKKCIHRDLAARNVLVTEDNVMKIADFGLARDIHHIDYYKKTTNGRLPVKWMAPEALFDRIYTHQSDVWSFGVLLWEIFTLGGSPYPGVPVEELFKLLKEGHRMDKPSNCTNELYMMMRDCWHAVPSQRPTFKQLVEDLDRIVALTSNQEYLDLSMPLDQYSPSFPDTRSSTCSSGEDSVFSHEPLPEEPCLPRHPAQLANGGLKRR

Chain of FLT4 (human) (P35916 whole entry, looked up): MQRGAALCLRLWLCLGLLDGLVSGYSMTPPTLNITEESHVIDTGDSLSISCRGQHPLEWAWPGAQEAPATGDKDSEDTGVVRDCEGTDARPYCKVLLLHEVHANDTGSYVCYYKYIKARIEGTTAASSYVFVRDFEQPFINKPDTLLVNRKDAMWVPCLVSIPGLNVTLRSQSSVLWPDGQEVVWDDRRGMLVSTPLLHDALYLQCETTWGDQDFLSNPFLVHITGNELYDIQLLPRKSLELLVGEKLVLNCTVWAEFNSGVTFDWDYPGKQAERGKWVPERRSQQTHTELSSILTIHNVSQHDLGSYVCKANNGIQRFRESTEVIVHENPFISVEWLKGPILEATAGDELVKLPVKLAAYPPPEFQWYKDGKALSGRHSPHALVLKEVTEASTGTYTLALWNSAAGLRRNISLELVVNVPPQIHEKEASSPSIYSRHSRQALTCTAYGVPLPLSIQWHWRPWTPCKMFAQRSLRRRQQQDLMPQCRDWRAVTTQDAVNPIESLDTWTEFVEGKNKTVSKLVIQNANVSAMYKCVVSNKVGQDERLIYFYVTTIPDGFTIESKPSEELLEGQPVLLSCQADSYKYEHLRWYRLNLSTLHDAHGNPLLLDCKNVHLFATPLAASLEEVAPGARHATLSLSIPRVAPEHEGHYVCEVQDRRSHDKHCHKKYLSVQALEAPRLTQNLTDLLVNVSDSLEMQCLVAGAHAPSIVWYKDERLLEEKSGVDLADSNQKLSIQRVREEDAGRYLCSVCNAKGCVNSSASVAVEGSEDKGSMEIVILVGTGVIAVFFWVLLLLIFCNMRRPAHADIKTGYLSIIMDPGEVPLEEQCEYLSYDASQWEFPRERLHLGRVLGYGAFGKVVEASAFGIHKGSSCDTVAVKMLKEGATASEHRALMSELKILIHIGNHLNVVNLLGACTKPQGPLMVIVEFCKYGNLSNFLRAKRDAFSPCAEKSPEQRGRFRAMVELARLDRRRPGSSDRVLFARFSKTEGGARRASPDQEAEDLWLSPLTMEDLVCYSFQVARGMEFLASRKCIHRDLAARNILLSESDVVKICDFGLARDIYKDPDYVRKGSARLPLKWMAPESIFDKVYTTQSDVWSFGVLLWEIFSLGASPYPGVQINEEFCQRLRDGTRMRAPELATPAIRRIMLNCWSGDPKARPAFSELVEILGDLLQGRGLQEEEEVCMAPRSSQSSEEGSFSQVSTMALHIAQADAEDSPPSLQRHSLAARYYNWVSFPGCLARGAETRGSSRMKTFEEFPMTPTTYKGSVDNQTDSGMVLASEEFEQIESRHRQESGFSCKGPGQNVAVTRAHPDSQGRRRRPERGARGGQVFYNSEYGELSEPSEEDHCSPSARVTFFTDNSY
Chain of EPHB2 (human) (P29323 whole entry, looked up): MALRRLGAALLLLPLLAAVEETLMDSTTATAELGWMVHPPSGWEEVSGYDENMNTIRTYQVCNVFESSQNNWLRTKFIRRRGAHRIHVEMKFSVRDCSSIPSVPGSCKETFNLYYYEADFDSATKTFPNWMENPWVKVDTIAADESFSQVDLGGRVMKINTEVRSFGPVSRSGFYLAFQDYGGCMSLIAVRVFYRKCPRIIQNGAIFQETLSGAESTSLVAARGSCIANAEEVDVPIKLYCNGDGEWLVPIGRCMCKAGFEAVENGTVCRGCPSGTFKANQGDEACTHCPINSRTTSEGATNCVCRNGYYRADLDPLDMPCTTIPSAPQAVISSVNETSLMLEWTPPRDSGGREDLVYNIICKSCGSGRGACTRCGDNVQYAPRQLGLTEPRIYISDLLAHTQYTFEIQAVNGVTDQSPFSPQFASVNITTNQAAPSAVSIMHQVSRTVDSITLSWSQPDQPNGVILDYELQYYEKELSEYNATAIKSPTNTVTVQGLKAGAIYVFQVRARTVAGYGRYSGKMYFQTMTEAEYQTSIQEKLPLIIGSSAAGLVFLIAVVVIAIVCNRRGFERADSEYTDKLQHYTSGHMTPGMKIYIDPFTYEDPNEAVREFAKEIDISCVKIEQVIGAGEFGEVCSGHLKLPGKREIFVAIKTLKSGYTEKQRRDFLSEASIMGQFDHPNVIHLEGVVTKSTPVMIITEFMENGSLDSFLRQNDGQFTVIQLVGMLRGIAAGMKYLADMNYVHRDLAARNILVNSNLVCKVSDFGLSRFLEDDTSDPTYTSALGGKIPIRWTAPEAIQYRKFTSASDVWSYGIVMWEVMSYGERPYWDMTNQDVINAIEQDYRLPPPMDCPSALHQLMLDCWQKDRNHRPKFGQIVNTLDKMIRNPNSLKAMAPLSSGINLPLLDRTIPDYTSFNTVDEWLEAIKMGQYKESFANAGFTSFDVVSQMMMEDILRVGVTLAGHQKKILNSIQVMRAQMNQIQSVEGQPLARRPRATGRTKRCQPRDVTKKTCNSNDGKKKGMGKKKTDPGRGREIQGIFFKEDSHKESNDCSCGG
Chain of ULK1 (human) (O75385 whole entry, looked up): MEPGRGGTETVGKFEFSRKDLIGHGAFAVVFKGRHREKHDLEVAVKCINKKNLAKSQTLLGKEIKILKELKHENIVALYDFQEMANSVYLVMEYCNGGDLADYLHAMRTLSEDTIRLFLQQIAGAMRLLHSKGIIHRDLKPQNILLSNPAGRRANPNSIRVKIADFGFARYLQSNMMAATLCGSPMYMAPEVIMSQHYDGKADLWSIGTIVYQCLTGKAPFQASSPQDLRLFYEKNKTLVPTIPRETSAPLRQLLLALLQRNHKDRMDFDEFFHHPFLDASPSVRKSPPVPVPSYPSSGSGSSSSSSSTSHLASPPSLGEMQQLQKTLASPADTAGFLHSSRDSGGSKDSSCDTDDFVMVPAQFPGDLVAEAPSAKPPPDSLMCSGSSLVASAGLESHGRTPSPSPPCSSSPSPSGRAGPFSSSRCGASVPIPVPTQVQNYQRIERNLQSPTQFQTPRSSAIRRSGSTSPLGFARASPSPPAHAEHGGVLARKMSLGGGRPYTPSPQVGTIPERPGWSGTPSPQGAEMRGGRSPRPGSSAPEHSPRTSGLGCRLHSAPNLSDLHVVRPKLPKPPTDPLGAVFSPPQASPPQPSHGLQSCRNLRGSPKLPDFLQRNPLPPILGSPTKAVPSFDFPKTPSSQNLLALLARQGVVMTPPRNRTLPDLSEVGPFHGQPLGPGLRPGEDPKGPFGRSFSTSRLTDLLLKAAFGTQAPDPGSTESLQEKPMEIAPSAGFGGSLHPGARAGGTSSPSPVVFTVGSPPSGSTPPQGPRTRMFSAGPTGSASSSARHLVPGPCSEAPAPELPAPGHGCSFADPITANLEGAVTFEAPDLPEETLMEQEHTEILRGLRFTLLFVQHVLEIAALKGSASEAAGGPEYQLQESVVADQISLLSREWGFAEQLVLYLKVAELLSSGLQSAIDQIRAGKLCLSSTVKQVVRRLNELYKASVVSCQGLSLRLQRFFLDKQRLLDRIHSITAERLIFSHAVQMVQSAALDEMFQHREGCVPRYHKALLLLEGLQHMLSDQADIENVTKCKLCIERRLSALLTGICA
Chain of FGFR3 (human), P22607 [G697C] (P22607 whole entry G697C, looked up): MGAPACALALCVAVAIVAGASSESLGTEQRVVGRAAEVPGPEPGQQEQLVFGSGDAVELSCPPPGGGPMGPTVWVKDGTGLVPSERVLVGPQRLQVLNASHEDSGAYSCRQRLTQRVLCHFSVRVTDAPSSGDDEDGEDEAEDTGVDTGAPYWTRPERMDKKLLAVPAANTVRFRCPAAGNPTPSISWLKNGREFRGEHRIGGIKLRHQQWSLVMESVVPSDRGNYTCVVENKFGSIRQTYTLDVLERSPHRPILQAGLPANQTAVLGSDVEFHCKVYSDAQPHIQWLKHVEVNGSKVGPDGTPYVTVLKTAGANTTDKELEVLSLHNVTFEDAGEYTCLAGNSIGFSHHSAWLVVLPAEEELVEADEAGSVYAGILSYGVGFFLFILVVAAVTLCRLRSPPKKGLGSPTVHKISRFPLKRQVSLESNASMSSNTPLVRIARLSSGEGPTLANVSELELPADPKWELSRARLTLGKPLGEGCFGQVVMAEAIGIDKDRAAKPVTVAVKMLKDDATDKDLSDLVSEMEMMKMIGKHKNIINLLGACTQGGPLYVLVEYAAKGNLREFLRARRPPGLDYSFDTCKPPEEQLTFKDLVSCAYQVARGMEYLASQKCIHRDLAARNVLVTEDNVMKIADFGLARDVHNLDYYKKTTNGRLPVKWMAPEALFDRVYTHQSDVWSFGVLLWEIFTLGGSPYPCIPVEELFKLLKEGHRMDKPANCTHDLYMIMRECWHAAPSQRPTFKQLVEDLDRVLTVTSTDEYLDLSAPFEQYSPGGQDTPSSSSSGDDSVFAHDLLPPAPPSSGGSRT

How did the kinase still bound, per cent of control [1] turn out when COc1cc(N2CCN(C)CC2)ccc1Nc1ncc2c(n1)N(C)c1sccc1C(=O)N2C was run?
Its kinase still bound, per cent of control is 86%.

What about the kinase still bound, per cent of control [2] of the same compound?
The kinase still bound, per cent of control was 59%.

What about the kinase still bound, per cent of control [3] of the same compound?
The kinase still bound, per cent of control was 94%.

What about the kinase still bound, per cent of control [4] of the same compound?
The kinase still bound, per cent of control was 81%.

And the kinase still bound, per cent of control [5]?
The kinase still bound, per cent of control was 100%.

What about the kinase still bound, per cent of control [6] of the same compound?
Its kinase still bound, per cent of control is 71%.

What about the kinase still bound, per cent of control [7] of the same compound?
The kinase still bound, per cent of control was 100%.

What about the kinase still bound, per cent of control [8] of the same compound?
The kinase still bound, per cent of control was 84%.

And the kinase still bound, per cent of control [9]?
Its kinase still bound, per cent of control is 54%.

And the kinase still bound, per cent of control [10]?
The kinase still bound, per cent of control was 100%.

What about the kinase still bound, per cent of control [11] of the same compound?
Its kinase still bound, per cent of control is 74%.

And the kinase still bound, per cent of control [12]?
Its kinase still bound, per cent of control is 100%.

What about the kinase still bound, per cent of control [13] of the same compound?
Its kinase still bound, per cent of control is 6.5%.

What about the kinase still bound, per cent of control [14] of the same compound?
The kinase still bound, per cent of control was 100%.

And the kinase still bound, per cent of control [15]?
Its kinase still bound, per cent of control is 99%.

And the kinase still bound, per cent of control [16]?
Its kinase still bound, per cent of control is 75%.

What about the kinase still bound, per cent of control [17] of the same compound?
Its kinase still bound, per cent of control is 60%.

And the kinase still bound, per cent of control [18]?
The kinase still bound, per cent of control was 96%.

What about the kinase still bound, per cent of control [19] of the same compound?
Its kinase still bound, per cent of control is 81%.

What about the kinase still bound, per cent of control [20] of the same compound?
Its kinase still bound, per cent of control is 93%.

And the kinase still bound, per cent of control [21]?
The kinase still bound, per cent of control was 25%.

And the kinase still bound, per cent of control [22]?
Its kinase still bound, per cent of control is 83%.

What about the kinase still bound, per cent of control [23] of the same compound?
The kinase still bound, per cent of control was 100%.

And the kinase still bound, per cent of control [24]?
Its kinase still bound, per cent of control is 56%.

And the kinase still bound, per cent of control [25]?
The kinase still bound, per cent of control was 68%.

What about the kinase still bound, per cent of control [26] of the same compound?
Its kinase still bound, per cent of control is 76%.

What about the kinase still bound, per cent of control [27] of the same compound?
Its kinase still bound, per cent of control is 88%.

What about the kinase still bound, per cent of control [28] of the same compound?
Its kinase still bound, per cent of control is 90%.

And the kinase still bound, per cent of control [29]?
Its kinase still bound, per cent of control is 97%.

And the kinase still bound, per cent of control [30]?
The kinase still bound, per cent of control was 71%.

What about the kinase still bound, per cent of control [31] of the same compound?
The kinase still bound, per cent of control was 69%.

And the kinase still bound, per cent of control [32]?
Its kinase still bound, per cent of control is 89%.

And the kinase still bound, per cent of control [33]?
Its kinase still bound, per cent of control is 99%.

And the kinase still bound, per cent of control [34]?
The kinase still bound, per cent of control was 98%.

And the kinase still bound, per cent of control [35]?
The kinase still bound, per cent of control was 82%.

And the kinase still bound, per cent of control [36]?
The kinase still bound, per cent of control was 100%.

What about the kinase still bound, per cent of control [37] of the same compound?
Its kinase still bound, per cent of control is 65%.

What about the kinase still bound, per cent of control [38] of the same compound?
The kinase still bound, per cent of control was 83%.

What about the kinase still bound, per cent of control [39] of the same compound?
Its kinase still bound, per cent of control is 82%.

And the kinase still bound, per cent of control [40]?
The kinase still bound, per cent of control was 59%.

And the kinase still bound, per cent of control [41]?
The kinase still bound, per cent of control was 35%.

And the kinase still bound, per cent of control [42]?
The kinase still bound, per cent of control was 100%.

Which results are given for COc1cc(N2CCC(O)CC2)ccc1Nc1ncc2c(n1)N1CCc3cccc(c31)C(=O)N2C?
kinase still bound, per cent of control [1]: 100%; kinase still bound, per cent of control [2]: 54%; kinase still bound, per cent of control [3]: 100%; kinase still bound, per cent of control [4]: 95%; kinase still bound, per cent of control [5]: 100%; kinase still bound, per cent of control [6]: 84%; kinase still bound, per cent of control [7]: 100%; kinase still bound, per cent of control [8]: 96%; kinase still bound, per cent of control [9]: 67%; kinase still bound, per cent of control [10]: 94%; kinase still bound, per cent of control [11]: 88%; kinase still bound, per cent of control [12]: 97%; kinase still bound, per cent of control [13]: 78%; kinase still bound, per cent of control [14]: 92%; kinase still bound, per cent of control [15]: 94%; kinase still bound, per cent of control [16]: 100%; kinase still bound, per cent of control [17]: 82%; kinase still bound, per cent of control [18]: 93%; kinase still bound, per cent of control [19]: 88%; kinase still bound, per cent of control [20]: 100%; kinase still bound, per cent of control [21]: 100%; kinase still bound, per cent of control [22]: 97%; kinase still bound, per cent of control [23]: 96%; kinase still bound, per cent of control [24]: 100%; kinase still bound, per cent of control [25]: 93%; kinase still bound, per cent of control [26]: 67%; kinase still bound, per cent of control [27]: 99%; kinase still bound, per cent of control [28]: 79%; kinase still bound, per cent of control [29]: 100%; kinase still bound, per cent of control [30]: 72%; kinase still bound, per cent of control [31]: 89%; kinase still bound, per cent of control [32]: 92%; kinase still bound, per cent of control [33]: 100%; kinase still bound, per cent of control [34]: 100%; kinase still bound, per cent of control [35]: 77%; kinase still bound, per cent of control [36]: 100%; kinase still bound, per cent of control [37]: 92%; kinase still bound, per cent of control [38]: 75%; kinase still bound, per cent of control [39]: 96%; kinase still bound, per cent of control [40]: 65%; kinase still bound, per cent of control [41]: 30%; kinase still bound, per cent of control [42]: 95%
